Reference: patent publication US3966745A, “Vinvamine series cycloalkyl-alkyl esters” (Synthelabo, priority 1973, dated 1976)

Key:
[1] = Acute toxicity (LD50, mice, intraperitoneal); conditions: mouse, in vivo, ip; intraperitoneal administration; Swiss mice of both sexes; method of Miller and Tainter
Method: The tests were carried out on mice of the Swiss strain of both sexes, each weighing 20 g on average. The LD50 's were calculated in accordance with the method of Miller and Tainter (Proc. Soc. exp. Biol. Med., 1944, 57, 261).

mice = assay: Hypobaric anoxia in mice (survival time); assay type: in vivo, male mice of the Swiss strain; conditions: for ED (100% increase in survival time): Mus musculus, ip, intraperitoneal administration, dose which increases survival time by 100%, residual pressure 19 cm of Hg, read-out: MAD (mean active dose), absolute value; for therapeutic index relative to that of vincamine (times more favourable): from LD50 and MAD, mice, intraperitoneal, versus vincamine
Text: The mice are kept in an atmosphere which is depleted in oxygen by creating a partial vacuum. The degree of anoxia was chosen after preliminary tests. The survival time of the control and treated animals is noted.
The chamber into which the animals are introduced is a chemical desiccator, divided into 7 compartments. Calcium oxide is placed in this chamber in order to absorb the expired carbon dioxide. This desicator is connected to a vacuum pump and to a manometer to measure the residual pressure.
The injections are carried out using a volume of 0.5 ml per 20 g of body weight.
7 animals are introduced at the same time into the chamber, i.e. 1 control mouse (treated with physiological serum), 3 mice each treated with a different dose of a reference substance, and three mice each treated with a different dose of a test substance.
The chamber is then evacuated until the residual pressure therein is 19 cm of Hg (this is achieved in approximately 30 seconds).
The survival time i.e. the time until the animals stop breathing of each of the animals is then recorded. […] The percentage increases are calculated from values obtained for each batch of animals.
The reference substance was vincamine.

For `CCC12C=C(C(=O)OCC3CC3)n3c4c(c5ccccc53)CCN(CCC1)C42` (stereo not shown) [SL 73-005, Cyclopropylmethyl apovincaminate], the LD50 [1] was 380 mg/kg, the ED (100% increase in survival time) (mice) was 6 mg/kg and the “therapeutic index relative to that of vincamine (times more favourable)” value (mice) was 2.5 times.
With `CCC12CCCN3CCc4c(n(c5ccccc45)C(O)(C(=O)OCC4CC4)C1)C32` (stereo not shown) [SL 72-401, Cyclopropylmethyl vincaminate] the LD50 [1] was 220 mg/kg and the ED (100% increase in survival time) (mice) was 11 mg/kg.
Compound `CC[C@]12CCCN3CCc4c(n(c5ccccc45)[C@@](O)(C(=O)OC)C1)[C@@H]32` [Vincamine, vincamine, reference compound] has an LD50 [1] of 215 mg/kg and an ED (100% increase in survival time) (mice) of 8 mg/kg.
With `CCC12CCCN3CCc4c(n(c5ccccc45)C(C(=O)OCC4CC4)C1)C32` (stereo not shown) [SL 73-041, Cyclopropylmethyl desoxyvincaminate] the LD50 [1] was 260 mg/kg, the ED (100% increase in survival time) (mice) was 6 mg/kg and the “therapeutic index relative to that of vincamine (times more favourable)” value (mice) was 1.6 times.
